Laboratory results: patent publication US7723332B2, “Aryl sulfonamides useful for modulation of the progesterone receptor” (Wyeth LLC, priority 2007, dated 2010)

tested on: alkaline phosphatase activity in T47D cells; test: Effects of progestins and antiprogestins on alkaline phosphatase activity in T47D cells; format: cell-based; settings: Homo sapiens; T47D alkaline phosphatase assay; antagonist mode in the presence of 1 nM progesterone; 24 hours
Protocol: Effects of Progestins and Antiprogestins on Alkaline Phosphatase Activity in T47D Cells
This example was performed to identify progestins or antiprogestins by determining a compound's effect on alkaline phosphatase activity in T47D cells.
Culture medium: DMEM:F12 (1:1) (GIBCO, BRL) supplemented with 5% (v/v) charcoal stripped fetal bovine serum (not heat-inactivated), 100 U/mL penicillin, 100 μg/mL streptomycin, and 2 mM the GlutaMax™ reagent (GIBCO, BRL).
Alkaline phosphatase assay buffer: • I. 0.1M Tris-HCl, pH 9.8, containing 0.2% the Triton® X-100 reagent • II. 0.1 M Tris-HCl, pH 9.8, containing 4 mM p-nitrophenyl phosphate (Sigma).
Frozen T47D cells were thawed in a 37° C. water bath and diluted to 280,000 cells/mL in culture medium. To each well in a 96-well plate (Falcon, Becton Dickinson Labware), 180 μL of diluted cell suspension was added. Twenty μL of reference or test compounds diluted in the culture medium was then added to each well. When testing for progestin antagonist activity, reference antiprogestins or test compounds were added in the presence of 1 nM progesterone. The cells were incubated at 37° C. in a 5% CO2/humidified atmosphere for 24 hours. NOTE: For high throughput screening, one concentration of each compound was tested at 0.3 μg/mL. Based on an average molecular weight of 300 g/mol for the compounds in the library, the concentration was approximately 1 μM. Subsequently, active compounds were tested in dose response assays to determine EC50 and IC50.
At the end of treatment, the medium was removed from the plate. Fifty μL of assay buffer I was added to each well. The plates were shaken in a titer plate shaker for 15 minutes. 150 μL of assay buffer II was then added to each well. Optical density measurements were taken at 5 minute intervals for 30 minutes at a test wavelength of 405 nm.
For reference and test compounds, a dose response curve was generated for dose (X-axis) vs. the rate of enzyme reaction (slope) (Y-axis). Square root-transformed data was used for analysis of variance and nonlinear dose response curve fitting for both agonist and antagonist modes. Huber weighting was used to down-weight the effects of outliners. EC50 or IC50 values were calculated from the retransformed values. JMP software (SAS Institute, Inc.) was used for both one-way analysis of variance and non-4 linear dose response analysis in both single dose and dose response studies.
Progesterone and trimegestone are reference progestins known in the art and typically show an EC50 of about 0.1 nM to about 2.0 nM.

| SMILES | IC50 [nM] |
| --- | --- |
| CNS(=O)(=O)c1ccc(-c2ccc(C#N)n2C)cc1 [Example 1, 4-(5-cyano-1-methyl-1H-pyrrol-2-yl)-N-methylbenzenesulfonamide] | 13.9 |
| CN(C)S(=O)(=O)c1ccc(-c2ccc(C#N)n2C)cc1 [Example 2, 4-(5-cyano-1-methyl-1H-pyrrol-2-yl)-N,N-dimethylbenzenesulfonamide] | 81.3 |
| CCNS(=O)(=O)c1ccc(-c2ccc(C#N)n2C)cc1 [Example 3, 4-(5-cyano-1-methyl-1H-pyrrol-2-yl)-N-ethylbenzenesulfonamide] | 11.4 |
| CCCNS(=O)(=O)c1ccc(-c2ccc(C#N)n2C)cc1 [Example 4, 4-(5-cyano-1-methyl-1H-pyrrol-2-yl)-N-propylbenzenesulfonamide] | 23.8 |
| CC(C)NS(=O)(=O)c1ccc(-c2ccc(C#N)n2C)cc1 [Example 5, 4-(5-cyano-1-methyl-1H-pyrrol-2-yl)-N-isopropylbenzenesulfonamide] | 27.5 |
| CC(C)CNS(=O)(=O)c1ccc(-c2ccc(C#N)n2C)cc1 [Example 6, 4-(5-cyano-1-methyl-1H-pyrrol-2-yl)-N-isobutylbenzenesulfonamide] | 47.9 |
| CCN(C)S(=O)(=O)c1ccc(-c2ccc(C#N)n2C)cc1 [Example 7, 4-(5-cyano-1-methyl-1H-pyrrol-2-yl)-N-ethyl-N-methylbenzenesulfonamide] | 66.1 |
| CCN(CC)S(=O)(=O)c1ccc(-c2ccc(C#N)n2C)cc1 [Example 8, 4-(5-cyano-1-methyl-1H-pyrrol-2-yl)-N,N-diethylbenzenesulfonamide] | 48.4 |
| Cn1c(C#N)ccc1-c1ccc(S(=O)(=O)N2CCCC2)cc1 [Example 10, 1-methyl-5-[4-(pyrrolidin-1-ylsulfonyl)phenyl]-1H-pyrrole-2-carbonitrile] | 146 |
| Cn1c(C#N)ccc1-c1ccc(S(=O)(=O)N2CCCCC2)cc1 [Example 11, 1-methyl-5-[4-(piperidin-1-ylsulfonyl)phenyl]-1H-pyrrole-2-carbonitrile] | 132 |
| Cn1c(C#N)ccc1-c1ccc(S(=O)(=O)N2CCOCC2)cc1 [Example 12, 1-methyl-5-[4-(morpholin-4-ylsulfonyl)phenyl]-1H-pyrrole-2-carbonitrile] | 189 |
| Cn1c(C#N)ccc1-c1ccc(S(=O)(=O)NC2CCC2)cc1 [Example 13, 4-(5-cyano-1-methyl-1H-pyrrol-2-yl)-N-cyclobutylbenzenesulfonamide] | 13.9 |
| Cn1c(C#N)ccc1-c1ccc(S(=O)(=O)NC2CC2)cc1 [Example 14, 4-(5-cyano-1-methyl-1H-pyrrol-2-yl)-N-cyclopropylbenzenesulfonamide] | 6.6 |
| Cn1c(C#N)ccc1-c1ccc(S(=O)(=O)NC2CCCCC2)cc1 [Example 15, 4-(5-cyano-1-methyl-1H-pyrrol-2-yl)-N-cyclohexylbenzenesulfonamide] | 58.9 |
| Cn1c(C#N)ccc1-c1ccc(S(=O)(=O)NCC(F)(F)F)cc1 [Example 16, 4-(5-cyano-1-methyl-1H-pyrrol-2-yl)-N-(2,2,2-trifluoroethyl)benzenesulfonamide] | 40.8 |
| Cn1c(C#N)ccc1-c1ccc(S(=O)(=O)NCC2CC2)cc1 [Example 17, 4-(5-cyano-1-methyl-1H-pyrrol-2-yl)-N-(cyclopropylmethyl)benzenesulfonamide] | 27.6 |
| Cn1c(C#N)ccc1-c1ccc(S(=O)(=O)n2cccc2)cc1 [Example 18, 1-methyl-5-[4-(1H-pyrrol-1-ylsulfonyl)phenyl]-1H-pyrrole-2-carbonitrile] | 48.1 |
| Cn1c(C#N)ccc1-c1ccc(S(N)(=O)=O)c(C(F)(F)F)c1 [Example 19, 4-(5-cyano-1-methyl-1H-pyrrol-2-yl)-2-(trifluoromethyl)benzenesulfonamide] | 35.8 |
| CN(C)S(=O)(=O)c1ccc(-c2ccc(C#N)n2C)cc1C(F)(F)F [Example 20, 4-(5-cyano-1-methyl-1H-pyrrol-2-yl)-N,N-dimethyl-2-(trifluoromethyl)benzenesulfonamide] | 81.9 |

| SMILES | IC50 [nM] |
| --- | --- |
| CCN(CC)S(=O)(=O)c1ccc(-c2ccc(C#N)n2C)cc1C(F)(F)F [Example 22, 4-(5-cyano-1-methyl-1H-pyrrol-2-yl)-N,N-diethyl-2-(trifluoromethyl)benzenesulfonamide] | 80.4 |
| CC(C)NS(=O)(=O)c1ccc(-c2ccc(C#N)n2C)cc1C(F)(F)F [Example 23, 4-(5-cyano-1-methyl-1H-pyrrol-2-yl)-N-isopropyl-2-(trifluoromethyl)benzenesulfonamide] | 77.1 |
| CCNS(=O)(=O)c1ccc(-c2ccc(C#N)n2C)cc1C(F)(F)F [Example 24, 4-(5-cyano-1-methyl-1H-pyrrol-2-yl)-N-ethyl-2-(trifluoromethyl)benzenesulfonamide] | 45.8 |
| CCCNS(=O)(=O)c1ccc(-c2ccc(C#N)n2C)cc1C(F)(F)F [Example 25, 4-(5-cyano-1-methyl-1H-pyrrol-2-yl)-N-propyl-2-(trifluoromethyl)benzenesulfonamide] | 17.3 |
| Cn1c(C#N)ccc1-c1ccc(S(=O)(=O)N2CCCC2)c(C(F)(F)F)c1 [Example 26, 1-methyl-5-[4-(pyrrolidin-1-ylsulfonyl)-3-(trifluoromethyl)phenyl]-1H-pyrrole-2-carbonitrile] | 115 |
| Cn1c(C#N)ccc1-c1ccc(S(=O)(=O)NC2CC2)c(C(F)(F)F)c1 [Example 27, 4-(5-cyano-1-methyl-1H-pyrrol-2-yl)-N-cyclopropyl-2-(trifluoromethyl)benzenesulfonamide] | 38.2 |
| Cn1c(C#N)ccc1-c1ccc(S(=O)(=O)NCC2CC2)c(C(F)(F)F)c1 [Example 28, 4-(5-cyano-1-methyl-1H-pyrrol-2-yl)-N-(cyclopropylmethyl)-2-(trifluoromethyl)benzenesulfonamide] | 34.9 |
| Cn1c(C#N)ccc1-c1ccc(S(=O)(=O)NC2CCC2)c(C(F)(F)F)c1 [Example 29, 4-(5-cyano-1-methyl-1H-pyrrol-2-yl)-N-cyclobutyl-2-(trifluoromethyl)benzenesulfonamide] | 17 |
| Cn1c(C#N)ccc1-c1ccc(S(N)(=O)=O)cc1F [Example 30, 4-(5-cyano-1-methyl-1H-pyrrol-2-yl)-3-fluorobenzenesulfonamide] | 91 |
| CNS(=O)(=O)c1ccc(-c2ccc(C#N)n2C)c(F)c1 [Example 31, 4-(5-cyano-1-methyl-1H-pyrrol-2-yl)-3-fluoro-N-methylbenzenesulfonamide] | 8.5 |
| CN(C)S(=O)(=O)c1ccc(-c2ccc(C#N)n2C)c(F)c1 [Example 32, 4-(5-cyano-1-methyl-1H-pyrrol-2-yl)-3-fluoro-N,N-dimethylbenzenesulfonamide] | 128 |
| CCNS(=O)(=O)c1ccc(-c2ccc(C#N)n2C)c(F)c1 [Example 33, 4-(5-cyano-1-methyl-1H-pyrrol-2-yl)-N-ethyl-3-fluorobenzenesulfonamide] | 13.1 |
| CCN(CC)S(=O)(=O)c1ccc(-c2ccc(C#N)n2C)c(F)c1 [Example 34, 4-(5-cyano-1-methyl-1H-pyrrol-2-yl)-N,N-diethyl-3-fluorobenzenesulfonamide] | 65.6 |
| CC(C)NS(=O)(=O)c1ccc(-c2ccc(C#N)n2C)c(F)c1 [Example 35, 4-(5-cyano-1-methyl-1H-pyrrol-2-yl)-3-fluoro-N-isopropylbenzenesulfonamide] | 26.8 |
| CCCNS(=O)(=O)c1ccc(-c2ccc(C#N)n2C)c(F)c1 [Example 36, 4-(5-cyano-1-methyl-1H-pyrrol-2-yl)-3-fluoro-N-propylbenzenesulfonamide] | 26.5 |
| Cn1c(C#N)ccc1-c1ccc(S(=O)(=O)N2CCCC2)cc1F [Example 37, 5-[2-fluoro-4-(pyrrolidin-1-ylsulfonyl)phenyl]-1-methyl-1H-pyrrole-2-carbonitrile] | 151 |
| Cn1c(C#N)ccc1-c1ccc(S(=O)(=O)NC2CC2)cc1F [Example 38, 4-(5-cyano-1-methyl-1H-pyrrol-2-yl)-N-cyclopropyl-3-fluorobenzenesulfonamide] | 9.7 |
| Cn1c(C#N)ccc1-c1ccc(S(=O)(=O)NCC2CC2)cc1F [Example 39, 4-(5-cyano-1-methyl-1H-pyrrol-2-yl)-N-(cyclopropylmethyl)-3-fluorobenzenesulfonamide] | 40.4 |

same assay, conditions: T47D alkaline phosphatase assay; antagonist mode in the presence of 1 nM progesterone; 24 hours

| SMILES | Active Dose [µM] |
| --- | --- |
| Cn1c(C#N)ccc1-c1ccc(S(=O)(=O)NC(C)(C)C)cc1 [Example 9, N-(tert-butyl)-4-(5-cyano-1-methyl-1H-pyrrol-2-yl)benzenesulfonamide] | 10 |
